Laboratory results as given in US20260356819A1, “OXOISOINDOLINYL-SUBSTITUTED […] DERIVATIVE AND USE THEREOF” (GLUETACS THERAPEUTICS (SHANGHAI) CO., LTD., priority 2023, published 2026).

Columns and labels:
Type in all cases: cell-based
Details in all cases: compounds at 50 nM and 500 nM
WEE1 = biological target: T1, WEE1 (Homo sapiens, UniProt P30291+Q96SW2); experiment: Western blot degradation of WEE1 in hPBMCs (24 h)
T1 construct: The supernatant was aspirated as the extracted total cell protein; endogenous in cells; host or cells: human peripheral blood mononuclear cells (hPBMCs)
Procedure, shortened: (§1)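 Thawed human PBMCs, 1×10^6 cells/mL; cpd 50 nM or 500 nM, 24 h; RIPA lysis, BCA, SDS-PAGE, NC transfer, immunoblot. Readout: grayscale/internal control → % remaining; degradation = 1 − remaining.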

IKZF1 = biological target: T2, IKZF1 (Homo sapiens, UniProt Q13422+Q96SW2); experiment: Western blot degradation of IKZF1 in hPBMCs (24 h)
T2 construct: The supernatant was aspirated as the extracted total cell protein; endogenous in cells; host or cells: human peripheral blood mononuclear cells (hPBMCs)
Procedure, shortened: as §1

IKZF2 = biological target: T3, IKZF2 (Homo sapiens, UniProt Q96SW2+Q9UKS7); experiment: Western blot degradation of IKZF2 in hPBMCs (24 h)
T3 construct: The supernatant was aspirated as the extracted total cell protein; endogenous in cells; host or cells: human peripheral blood mononuclear cells (hPBMCs)
Procedure, shortened: as §1

IKZF3 = biological target: T4, IKZF3 (Homo sapiens, UniProt Q96SW2+Q9UKT9); experiment: Western blot degradation of IKZF3 in hPBMCs (24 h)
T4 construct: The supernatant was aspirated as the extracted total cell protein; endogenous in cells; host or cells: human peripheral blood mononuclear cells (hPBMCs)
Procedure, shortened: as §1

CK1α = biological target: T5, CK1α (Homo sapiens, UniProt P48729+Q96SW2); experiment: Western blot degradation of CK1α in hPBMCs (24 h)
T5 construct: The supernatant was aspirated as the extracted total cell protein; endogenous in cells; host or cells: human peripheral blood mononuclear cells (hPBMCs)
Procedure, shortened: as §1

GSPT1 = biological target: T6, GSPT1 (Homo sapiens, UniProt P15170+Q96SW2); experiment: Western blot degradation of GSPT1 in hPBMCs (24 h)
T6 construct: The supernatant was aspirated as the extracted total cell protein; endogenous in cells; host or cells: human peripheral blood mononuclear cells (hPBMCs)
Procedure, shortened: as §1

T6 sequence (P15170 whole entry): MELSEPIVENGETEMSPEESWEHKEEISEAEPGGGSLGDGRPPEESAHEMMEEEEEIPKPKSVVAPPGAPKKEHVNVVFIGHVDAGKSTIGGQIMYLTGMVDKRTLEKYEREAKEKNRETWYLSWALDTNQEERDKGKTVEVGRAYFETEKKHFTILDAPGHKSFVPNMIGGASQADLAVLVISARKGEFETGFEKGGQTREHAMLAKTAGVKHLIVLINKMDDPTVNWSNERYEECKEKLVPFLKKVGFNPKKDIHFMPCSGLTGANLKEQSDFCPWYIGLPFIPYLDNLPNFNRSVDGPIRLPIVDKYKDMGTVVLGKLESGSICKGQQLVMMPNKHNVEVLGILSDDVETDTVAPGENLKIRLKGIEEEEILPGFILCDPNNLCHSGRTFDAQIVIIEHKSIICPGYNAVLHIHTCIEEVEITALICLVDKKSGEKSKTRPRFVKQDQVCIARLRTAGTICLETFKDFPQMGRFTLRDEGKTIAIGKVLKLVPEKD
T6 sequence (Q96SW2 whole entry): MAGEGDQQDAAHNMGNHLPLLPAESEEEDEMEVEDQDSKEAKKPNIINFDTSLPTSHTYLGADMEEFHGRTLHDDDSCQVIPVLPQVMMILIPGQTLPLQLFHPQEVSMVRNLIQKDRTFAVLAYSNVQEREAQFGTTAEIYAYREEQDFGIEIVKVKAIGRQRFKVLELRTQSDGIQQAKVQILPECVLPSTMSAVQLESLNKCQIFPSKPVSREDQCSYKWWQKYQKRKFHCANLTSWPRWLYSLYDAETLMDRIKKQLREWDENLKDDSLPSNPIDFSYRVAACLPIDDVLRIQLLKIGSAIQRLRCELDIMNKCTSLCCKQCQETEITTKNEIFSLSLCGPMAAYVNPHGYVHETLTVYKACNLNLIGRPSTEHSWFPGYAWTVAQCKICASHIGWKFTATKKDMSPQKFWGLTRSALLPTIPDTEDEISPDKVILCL
T6 sequence (Q16531 whole entry partner): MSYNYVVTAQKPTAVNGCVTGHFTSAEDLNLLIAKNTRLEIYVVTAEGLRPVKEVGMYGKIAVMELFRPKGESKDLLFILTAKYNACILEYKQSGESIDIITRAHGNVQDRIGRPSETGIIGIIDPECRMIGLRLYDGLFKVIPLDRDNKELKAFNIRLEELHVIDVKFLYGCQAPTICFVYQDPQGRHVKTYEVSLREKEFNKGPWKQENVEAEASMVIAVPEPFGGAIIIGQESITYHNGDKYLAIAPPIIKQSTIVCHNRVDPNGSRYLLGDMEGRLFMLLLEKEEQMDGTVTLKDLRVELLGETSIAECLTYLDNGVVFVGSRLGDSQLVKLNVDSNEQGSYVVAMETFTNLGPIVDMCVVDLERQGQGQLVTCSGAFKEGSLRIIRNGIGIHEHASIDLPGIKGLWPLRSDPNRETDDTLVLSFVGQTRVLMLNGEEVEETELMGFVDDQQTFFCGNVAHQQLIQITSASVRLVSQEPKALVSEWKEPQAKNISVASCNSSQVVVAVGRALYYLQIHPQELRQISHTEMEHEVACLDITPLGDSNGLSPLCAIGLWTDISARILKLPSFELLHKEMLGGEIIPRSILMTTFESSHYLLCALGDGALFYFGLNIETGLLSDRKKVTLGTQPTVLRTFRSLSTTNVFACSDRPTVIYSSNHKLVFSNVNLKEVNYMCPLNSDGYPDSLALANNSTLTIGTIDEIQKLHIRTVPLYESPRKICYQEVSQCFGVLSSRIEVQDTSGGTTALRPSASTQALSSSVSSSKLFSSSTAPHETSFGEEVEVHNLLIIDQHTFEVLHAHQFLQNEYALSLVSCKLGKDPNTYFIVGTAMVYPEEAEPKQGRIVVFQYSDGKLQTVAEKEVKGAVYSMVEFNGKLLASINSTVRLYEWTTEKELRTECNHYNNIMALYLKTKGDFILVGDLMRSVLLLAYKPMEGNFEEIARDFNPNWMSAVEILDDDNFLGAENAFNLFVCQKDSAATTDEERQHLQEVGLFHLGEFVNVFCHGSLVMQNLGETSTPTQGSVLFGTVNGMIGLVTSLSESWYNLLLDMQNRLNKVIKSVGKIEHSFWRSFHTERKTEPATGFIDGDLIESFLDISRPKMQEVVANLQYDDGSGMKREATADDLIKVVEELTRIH
T1 sequence (P30291 whole entry): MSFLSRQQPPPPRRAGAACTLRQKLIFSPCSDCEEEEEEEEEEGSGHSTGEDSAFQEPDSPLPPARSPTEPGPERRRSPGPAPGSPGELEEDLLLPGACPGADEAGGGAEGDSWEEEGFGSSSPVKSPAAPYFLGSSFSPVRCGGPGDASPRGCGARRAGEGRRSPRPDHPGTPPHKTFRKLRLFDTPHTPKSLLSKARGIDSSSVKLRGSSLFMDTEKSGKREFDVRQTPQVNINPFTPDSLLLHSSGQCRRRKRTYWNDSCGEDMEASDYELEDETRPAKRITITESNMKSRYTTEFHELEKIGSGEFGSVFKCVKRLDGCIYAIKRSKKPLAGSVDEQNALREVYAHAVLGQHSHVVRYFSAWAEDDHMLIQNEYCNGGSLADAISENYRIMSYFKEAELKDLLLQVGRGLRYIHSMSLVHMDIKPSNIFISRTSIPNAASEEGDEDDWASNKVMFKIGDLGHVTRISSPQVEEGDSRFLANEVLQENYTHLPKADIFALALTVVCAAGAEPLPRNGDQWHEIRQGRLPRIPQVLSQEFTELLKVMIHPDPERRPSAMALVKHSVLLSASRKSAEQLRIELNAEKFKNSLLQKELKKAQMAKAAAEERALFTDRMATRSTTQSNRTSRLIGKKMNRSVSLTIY
T1 sequence (Q96SW2 whole entry): as the sequence (Q96SW2 whole entry) above
T1 sequence (Q16531 whole entry partner): as the sequence (Q16531 whole entry partner) above
T3 sequence (Q9UKS7 whole entry): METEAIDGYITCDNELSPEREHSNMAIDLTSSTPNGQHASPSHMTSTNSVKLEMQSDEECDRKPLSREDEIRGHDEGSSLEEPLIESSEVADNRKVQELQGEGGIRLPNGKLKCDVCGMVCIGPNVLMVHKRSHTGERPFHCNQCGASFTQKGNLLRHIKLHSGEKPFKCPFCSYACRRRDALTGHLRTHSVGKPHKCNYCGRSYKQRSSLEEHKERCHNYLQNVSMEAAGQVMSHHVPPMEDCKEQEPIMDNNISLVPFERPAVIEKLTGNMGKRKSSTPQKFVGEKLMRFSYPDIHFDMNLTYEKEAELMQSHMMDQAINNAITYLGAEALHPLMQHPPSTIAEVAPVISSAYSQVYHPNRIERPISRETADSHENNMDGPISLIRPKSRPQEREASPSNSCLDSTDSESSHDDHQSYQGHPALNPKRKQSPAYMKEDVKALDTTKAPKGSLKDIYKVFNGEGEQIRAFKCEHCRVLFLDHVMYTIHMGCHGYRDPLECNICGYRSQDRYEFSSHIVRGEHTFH
T3 sequence (Q96SW2 whole entry): as the sequence (Q96SW2 whole entry) above
T3 sequence (Q16531 whole entry partner): as the sequence (Q16531 whole entry partner) above
T2 sequence (Q13422 whole entry): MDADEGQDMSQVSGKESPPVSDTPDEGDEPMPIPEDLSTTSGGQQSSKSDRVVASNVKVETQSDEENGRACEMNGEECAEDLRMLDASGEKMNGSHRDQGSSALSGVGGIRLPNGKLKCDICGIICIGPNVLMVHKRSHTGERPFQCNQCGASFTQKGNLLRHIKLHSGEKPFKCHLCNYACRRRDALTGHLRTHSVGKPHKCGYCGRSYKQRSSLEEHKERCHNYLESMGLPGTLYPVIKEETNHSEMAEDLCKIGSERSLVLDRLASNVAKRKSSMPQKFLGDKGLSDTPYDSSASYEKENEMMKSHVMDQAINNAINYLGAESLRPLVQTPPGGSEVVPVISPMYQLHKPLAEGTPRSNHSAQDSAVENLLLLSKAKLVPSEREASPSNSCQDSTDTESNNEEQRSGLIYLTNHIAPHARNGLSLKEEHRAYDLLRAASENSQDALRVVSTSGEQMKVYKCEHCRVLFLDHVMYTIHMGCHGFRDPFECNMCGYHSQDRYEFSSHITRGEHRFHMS
T2 sequence (Q96SW2 whole entry): as the sequence (Q96SW2 whole entry) above
T2 sequence (Q16531 whole entry partner): as the sequence (Q16531 whole entry partner) above
T5 sequence (P48729 whole entry): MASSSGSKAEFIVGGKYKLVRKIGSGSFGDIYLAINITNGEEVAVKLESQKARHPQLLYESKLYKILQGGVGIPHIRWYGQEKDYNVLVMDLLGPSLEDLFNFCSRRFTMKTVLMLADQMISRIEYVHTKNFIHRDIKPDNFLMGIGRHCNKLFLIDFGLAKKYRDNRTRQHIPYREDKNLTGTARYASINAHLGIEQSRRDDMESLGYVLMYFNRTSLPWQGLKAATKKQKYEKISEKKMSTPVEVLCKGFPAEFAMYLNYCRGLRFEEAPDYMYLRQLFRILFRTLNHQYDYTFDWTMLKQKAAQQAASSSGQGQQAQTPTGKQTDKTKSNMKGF
T5 sequence (Q96SW2 whole entry): as the sequence (Q96SW2 whole entry) above
T5 sequence (Q16531 whole entry partner): as the sequence (Q16531 whole entry partner) above

Row | SMILES | WEE1 substrate protein remaining % (WEE1) | IKZF1 substrate protein remaining % (IKZF1) | IKZF2 substrate protein remaining % (IKZF2) | IKZF3 substrate protein remaining % (IKZF3) | CK1α substrate protein remaining % (CK1α) | GSPT1 substrate protein remaining % (GSPT1)
1 | O=C1CCN(N2Cc3cc(CN4CCC(n5c(=O)[nH]c6cc(F)ccc65)CC4)ccc3C2=O)C(=O)N1 [GT-07579, 1-(5-((4-(5-fluoro-2-oxo-2,3-dihydro-1H-benzo[d]imidazol-1-yl)piperidin-1-yl)methyl)-1-oxoisoindolin-2-yl)dihydropyrimidine-2,4(1H,3H)-dione] | A (0% ≤ substrate protein remaining % ≤80%) | A (0% ≤ substrate protein remaining % ≤80%) | A (0% ≤ substrate protein remaining % ≤80%) | B (80%< substrate protein remaining % ≤100%) | B (80%< substrate protein remaining % ≤100%) | A (0% ≤ substrate protein remaining % ≤80%)
2 | O=C1CCN(N2C(=O)c3ccc(CN4CC=C(c5c[nH]c6cc(F)ccc56)CC4)cc3C2=O)C(=O)N1 [GT-07580, 2-(2,4-dioxotetrahydropyrimidin-1(2H)-yl)-5-((4-(6-fluoro-1H-indol-3-yl)-3,6-dihydropyridin-1(2H)-yl)methyl)isoindoline-1,3-dione] | A (0% ≤ substrate protein remaining % ≤80%) | A (0% ≤ substrate protein remaining % ≤80%) | A (0% ≤ substrate protein remaining % ≤80%) | A (0% ≤ substrate protein remaining % ≤80%) | B (80%< substrate protein remaining % ≤100%) | A (0% ≤ substrate protein remaining % ≤80%)
3 | Cn1cc(C2CCN(Cc3ccc4c(c3)C(=O)N(N3CCC(=O)NC3=O)C4=O)CC2)c2ccc(F)cc21 [GT-07581, 2-(2,4-dioxotetrahydropyrimidin-1(2H)-yl)-5-((4-(6-fluoro-1-methyl-1H-indol-3-yl)piperidin-1-yl)methyl)isoindoline-1,3-dione] | A (0% ≤ substrate protein remaining % ≤80%) | A (0% ≤ substrate protein remaining % ≤80%) | A (0% ≤ substrate protein remaining % ≤80%) | B (80%< substrate protein remaining % ≤100%) | B (80%< substrate protein remaining % ≤100%) | A (0% ≤ substrate protein remaining % ≤80%)
4 | O=C1CCN(N2C(=O)c3ccc(CN4CCC(c5c[nH]c6ncccc56)CC4)cc3C2=O)C(=O)N1 [GT-07582, 5-((4-(1H-pyrrolo[2,3-b]pyridin-3-yl)piperidin-1-yl)methyl)-2-(2,4-dioxotetrahydropyrimidin-1(2H)-yl)isoindoline-1,3-dione] | A (0% ≤ substrate protein remaining % ≤80%) | A (0% ≤ substrate protein remaining % ≤80%) | A (0% ≤ substrate protein remaining % ≤80%) | B (80%< substrate protein remaining % ≤100%) | B (80%< substrate protein remaining % ≤100%) | A (0% ≤ substrate protein remaining % ≤80%)
5 | O=C1CCN(N2C(=O)c3ccc(CN4CCC(n5c(=O)[nH]c6cc(F)ccc65)CC4)cc3C2=O)C(=O)N1 [GT-07583, 2-(2,4-dioxotetrahydropyrimidin-1(2H)-yl)-5-((4-(5-fluoro-2-oxo-2,3-dihydro-1H-benzo[d]imidazol-1-yl)piperidin-1-yl)methyl)isoindoline-1,3-dione] | A (0% ≤ substrate protein remaining % ≤80%) | B (80%< substrate protein remaining % ≤100%) | B (80%< substrate protein remaining % ≤100%) | B (80%< substrate protein remaining % ≤100%) | B (80%< substrate protein remaining % ≤100%) | A (0% ≤ substrate protein remaining % ≤80%)
6 | O=C1CCN(N2Cc3cc(CN4CCC(N5CCCc6cc(F)ccc65)CC4)ccc3C2=O)C(=O)N1 [GT-07584, 1-(5-((4-(6-fluoro-3,4-dihydroquinolin-1(2H)-yl)piperidin-1-yl)methyl)-1-oxoisoindolin-2-yl)dihydropyrimidine-2,4(1H,3H)-dione] | A (0% ≤ substrate protein remaining % ≤80%) | A (0% ≤ substrate protein remaining % ≤80%) | B (80%< substrate protein remaining % ≤100%) | B (80%< substrate protein remaining % ≤100%) | B (80%< substrate protein remaining % ≤100%) | A (0% ≤ substrate protein remaining % ≤80%)
7 | O=C1CCN(N2Cc3cc(CN4CCC(N5CCOc6cc(F)ccc65)CC4)ccc3C2=O)C(=O)N1 [GT-07585, 1-(5-((4-(7-fluoro-2,3-dihydro-4H-benzo[b][1,4]oxazin-4-yl)piperidin-1-yl)methyl)-1-oxoisoindolin-2-yl)dihydropyrimidine-2,4(1H,3H)-dione] | A (0% ≤ substrate protein remaining % ≤80%) | A (0% ≤ substrate protein remaining % ≤80%) | B (80%< substrate protein remaining % ≤100%) | B (80%< substrate protein remaining % ≤100%) | B (80%< substrate protein remaining % ≤100%) | A (0% ≤ substrate protein remaining % ≤80%)
8 | O=C1CCN(N2Cc3cc(CN4CCC(N5C(=O)COc6cc(F)ccc65)CC4)ccc3C2=O)C(=O)N1 [GT-07586, 1-(5-((4-(7-fluoro-3-oxo-2,3-dihydro-4H-benzo[b][1,4]oxazin-4-yl)piperidin-1-yl)methyl)-1-oxoisoindolin-2-yl)dihydropyrimidine-2,4(1H,3H)-dione] | A (0% ≤ substrate protein remaining % ≤80%) | A (0% ≤ substrate protein remaining % ≤80%) | B (80%< substrate protein remaining % ≤100%) | B (80%< substrate protein remaining % ≤100%) | B (80%< substrate protein remaining % ≤100%) | A (0% ≤ substrate protein remaining % ≤80%)
9 | O=C1CCN(N2Cc3cc(CN4CCC(C5CCOc6cc(F)ccc65)CC4)ccc3C2=O)C(=O)N1 (stereo not drawn) [GT-07587, 1-(5-((4-(7-fluorochroman-4-yl)piperidin-1-yl)methyl)-1-oxoisoindolin-2-yl)dihydropyrimidine-2,4(1H,3H)-dione] | A (0% ≤ substrate protein remaining % ≤80%) | A (0% ≤ substrate protein remaining % ≤80%) | B (80%< substrate protein remaining % ≤100%) | B (80%< substrate protein remaining % ≤100%) | B (80%< substrate protein remaining % ≤100%) | A (0% ≤ substrate protein remaining % ≤80%)
10 | O=C1CCN(N2Cc3cc(CN4CCC(=C5CCOc6cc(F)ccc65)CC4)ccc3C2=O)C(=O)N1 [GT-07588, 1-(5-((4-(7-fluorochroman-4-ylidene)piperidin-1-yl)methyl)-1-oxoisoindolin-2-yl)dihydropyrimidine-2,4(1H,3H)-dione] | B (80%< substrate protein remaining % ≤100%) | B (80%< substrate protein remaining % ≤100%) | B (80%< substrate protein remaining % ≤100%) | B (80%< substrate protein remaining % ≤100%) | B (80%< substrate protein remaining % ≤100%) | A (0% ≤ substrate protein remaining % ≤80%)
11 | O=C1CCN(N2Cc3cc(CN4CCC(c5cccc6c(F)cccc56)CC4)ccc3C2=O)C(=O)N1 [GT-07589, 1-(5-((4-(5-fluoronaphthalen-1-yl)piperidin-1-yl)methyl)-1-oxoisoindolin-2-yl)dihydropyrimidine-2,4(1H,3H)-dione] | B (80%< substrate protein remaining % ≤100%) | B (80%< substrate protein remaining % ≤100%) | B (80%< substrate protein remaining % ≤100%) | B (80%< substrate protein remaining % ≤100%) | B (80%< substrate protein remaining % ≤100%) | A (0% ≤ substrate protein remaining % ≤80%)
12 | O=C1CCN(N2Cc3cc(CN4CCC(c5noc6ccccc56)CC4)ccc3C2=O)C(=O)N1 [GT-07642, 1-(5-((4-(benzo[d]isoxazol-3-yl)piperidin-1-yl)methyl)-1-oxoisoindolin-2-yl)dihydropyrimidine-2,4(1H,3H)-dione] | B (80%< substrate protein remaining % ≤100%) | B (80%< substrate protein remaining % ≤100%) | B (80%< substrate protein remaining % ≤100%) | B (80%< substrate protein remaining % ≤100%) | B (80%< substrate protein remaining % ≤100%) | A (0% ≤ substrate protein remaining % ≤80%)
